Among the data in US20220402950A1, “SUBSTITUTED BENZIMIDAZOLES AS PAD4 INHIBITORS” (BRISTOL-MYERS SQUIBB COMPANY, priority 2018, published 2022) are IC50 values, retold here.

This assay concerns the target human PAD4 (hPAD4) (Homo sapiens, UniProt Q9UM07). As to the kind of experiment: RFMS Human PAD4 Functional Assay. The format is biochemical. The following applies: 5 nM hPAD4, 250 μM BAEE. As to the method:
RFMS Human PAD4 Functional Assay:
Compounds were solubilized in 100% DMSO to achieve a 10 mM compound concentration. Compound stock solutions were stored at RT. A series of dilutions were prepared in DMSO and mixed 8 times with 20 μL mixing volume. Final top concentration of compound in the assay is 50 μM.
0.13 μL of compound solution was added to 13 μL of 10 nM PAD4 in assay buffer. After 30 min 13 μl of 500 μM of BAEE was added in 25 mM hepes, pH 7.5, 5 mM NaCl, 1 mM DTT, 0.2 mg/ml BSA, 0.01% CHAPS, 50 μM Calcium, 5 μM TPEN was added and the reaction incubated for 90 min at 37° C. The enzymatic reaction was quenched by addition of 15 μl of 6.1N TCA, 100% Final Concentration is 20%, 35 μl of 8.5 mM phenyl glyoxal (final concentration 4 mM) is then added and the reaction is incubated for 30 min at 37° C.
After 30 minutes the plates are spun down to remove all precipitate. The enzyme reaction was quenched with an equal volume of methanol containing internal standard (modified citrulline). Samples were loaded onto the Rapid Fire RF300 system (Agilent) wherein they were first sipped for 1000 ms and then directly loaded to a C18 separations cartridge using a mixture of acetonitrile containing 0.01% formic acid for 3000 ms desalting. The flow rate of the mobile phase was 1.5 ml/min.
The dwell time for each transition was set at 200 ms, and the ESI voltage was used at 5500 with a source temperature of 400° C. Extracted ion peaks for each transition were integrated using the Rapid Fire Integrator software. Peak area of analyte was normalized with internal standard.).

Setting [1] is: hPAD4 RFMS IC50, human PAD4, rapid-fire mass spectrum (RFMS) assay.
The mark [2] stands for this setting: human PAD4, rapid-fire mass spectrum (RFMS) assay, read-out: hPAD4 RFMS IC50.

Read-outs that look alike come from different tables or passages of the source.

human PAD4 (hPAD4), sequence (Q9UM07 whole entry): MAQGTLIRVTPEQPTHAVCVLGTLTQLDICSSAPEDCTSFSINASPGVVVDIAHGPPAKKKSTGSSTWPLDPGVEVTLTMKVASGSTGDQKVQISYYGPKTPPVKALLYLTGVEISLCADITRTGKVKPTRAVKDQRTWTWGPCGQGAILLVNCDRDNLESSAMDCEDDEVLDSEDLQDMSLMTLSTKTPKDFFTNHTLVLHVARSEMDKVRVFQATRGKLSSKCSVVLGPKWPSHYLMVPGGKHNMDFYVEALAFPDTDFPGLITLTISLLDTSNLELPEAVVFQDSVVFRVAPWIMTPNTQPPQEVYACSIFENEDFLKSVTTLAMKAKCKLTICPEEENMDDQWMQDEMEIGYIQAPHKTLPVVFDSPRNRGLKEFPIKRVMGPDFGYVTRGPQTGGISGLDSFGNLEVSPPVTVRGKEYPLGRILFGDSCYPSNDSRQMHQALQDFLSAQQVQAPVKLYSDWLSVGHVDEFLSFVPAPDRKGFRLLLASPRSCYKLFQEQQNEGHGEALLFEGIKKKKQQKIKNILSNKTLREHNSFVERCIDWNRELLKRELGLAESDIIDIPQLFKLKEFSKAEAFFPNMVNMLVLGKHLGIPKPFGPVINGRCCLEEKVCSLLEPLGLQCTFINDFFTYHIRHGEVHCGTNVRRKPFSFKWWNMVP

Under setting [1], `COc1cc(C(=O)N2C[C@H]3CC[C@@H]2[C@@H]3N)cc2nc(-c3cc4cccc(C5CCN(C(=O)Nc6ccc(F)cc6)CC5)c4n3CC3CC3)n(C)c12` [Example 241, 4-(2-(5-((1R,4R,7R)-7-amino-2-azabicyclo[2.2.1]heptane-2-carbonyl)-7-methoxy-1-methyl-1H-benzo[d]imidazol-2-yl)-1-(cyclopropylmethyl)-1H-indol-7-yl)-N-(4-fluorophenyl)piperidine-1-carboxamide] registered a concentration for half-maximal inhibition (IC50) of 0.028 µM. Same read-out and setting: the value for `COc1cc(C(=O)N2C[C@H]3CC[C@@H]2[C@@H]3N)cc2nc(-c3cc4cccc(-c5ccc(O)nc5)c4n3CC3CC3)n(C)c12` [Example 197, ((1R,4R,7R)-7-amino-2-azabicyclo[2.2.1]heptan-2-yl)(2-(1-(cyclopropylmethyl)-7-(6-hydroxypyridin-3-yl)-1H-indol-2-yl)-7-methoxy-1-methyl-1H-benzo[d]imidazol-5-yl)methanone] was 0.12 µM; that for `COc1cc(C(=O)N2C[C@H]3CC[C@@H]2[C@@H]3N)cc2nc(-c3cc4cccc(CCCCCN)c4n3CC3CC3)n(C)c12` [Example 16, (1R,4R,7R)-2-{2-[7-(5-aminopentyl)-1-(cyclopropylmethyl)-1H-indol-2-yl]-7-methoxy-1-methyl-1H-1,3-benzodiazole-5-carbonyl}-2-azabicyclo[2.2.1]heptan-7-amine] was 0.039 µM; that for `COc1cc(C(=O)N2C[C@H]3CC[C@@H]2[C@@H]3N)cc2nc(-c3cc4cc(C)cc(-c5cn[nH]c5)c4n3CC3CC3)n(C)c12` [Example 154, ((1R,4R,7R)-7-amino-2-azabicyclo[2.2.1]heptan-2-yl)(2-(1-(cyclopropylmethyl)-5-methyl-7-(1H-pyrazol-4-yl)-1H-indol-2-yl)-7-methoxy-1-methyl-1H-benzo[d]imidazol-5-yl)methanone] was 0.043 µM. The compound `COCCCC(=O)N1CCC(c2cccc3cc(-c4nc5cc(C(=O)N6C[C@H]7CC[C@@H]6[C@@H]7N)cc(OC)c5n4C)n(CC4CC4)c23)CC1` [Example 237, 1-(4-(2-(5-((1R,4R,7R)-7-amino-2-azabicyclo[2.2.1]heptane-2-carbonyl)-7-methoxy-1-methyl-1H-benzo[d]imidazol-2-yl)-1-(cyclopropylmethyl)-1H-indol-7-yl)piperidin-1-yl)-4-methoxybutan-1-one] had an IC50 under setting [1] of 0.018 µM. With `CNC(=O)C1CC(c2cccc3cc(-c4nc5cc(C(=O)N6C[C@H](N)C[C@@H](F)C6)cc(OC)c5n4C)n(CC4CC4)c23)C1` (single isomer, unassigned) [Example 112], the half-inhibitory concentration (IC50) under setting [2] was found to be 0.145 µM.

`COc1cc(C(=O)N2C[C@H]3CC[C@@H]2[C@@H]3N)cc2nc(-c3cc4cccc(C5CCCC(C(N)=O)C5)c4n3CC3CC3)n(C)c12` (single isomer, unassigned) [Example 85]: the half-inhibitory concentration (IC50) under setting [2] turned out to be 0.049 µM. For the compound `COc1cc(C(=O)N2C[C@H](N)C[C@@H](F)C2)cc2nc(-c3cc4cccc(-c5ccc6c(c5)C(C)(O)C(=O)N6)c4n3CC3CC3)n(C)c12` (stereo partly drawn) [Example 208, 5-(2-(5-((3R,5R)-3-amino-5-fluoropiperidine-1-carbonyl)-7-methoxy-1-methyl-1H-benzo[d]imidazol-2-yl)-1-(cyclopropylmethyl)-1H-indol-7-yl)-3-hydroxy-3-methylindolin-2-one], under setting [1], the IC50 amounted to 0.071 µM. The same measure, in the same setting: the value for `COc1cc(C(=O)N2C[C@H]3CC[C@@H]2[C@@H]3N)cc2nc(-c3cc4cccc(OC)c4n3CC3CC3)n(C)c12` [Example 148, ((1R,4R,7R)-7-amino-2-azabicyclo[2.2.1]heptan-2-yl)(2-(1-(cyclopropylmethyl)-7-methoxy-1H-indol-2-yl)-7-methoxy-1-methyl-1H-benzo[d]imidazol-5-yl)methanone] was 0.061 µM; that for `COc1cc(C(=O)N2C[C@H]3CC[C@@H]2[C@@H]3N)cc2nc(-c3cc4cccc(C5CCC(O)CC5)c4n3CC3CC3)n(C)c12` (stereo partly drawn) [Example 24, 4-(2-{5-[(1R,4R,7R)-7-amino-2-azabicyclo[2.2.1]heptane-2-carbonyl]-7-methoxy-1-methyl-1H-1,3-benzodiazol-2-yl}-1-(cyclopropylmethyl)-1H-indol-7-yl)cyclohexan-1-ol] was 0.061 µM.

In general, IC50 refers to the concentration needed to halve the response being measured.
